Values joined by “and” are separate entries in the source; they are usually repeats but may differ in a detail not shown here. Equal entries are not always repeated.
Columns and labels:
Type in all cases: functional
[1] = tested on: Rattus norvegicus; assay: Concentration of C22:1 ceramide in liver of D-galactosamine treated rats after 18 hr at dose of 1 g/kg intraperitoneally
[2] = tested on: Rattus norvegicus; assay: Concentration of C22:1 ceramide in liver of D-galactosamine treated rats after 24 hr at dose of 1 g/kg intraperitoneally
[3] = tested on: Rattus norvegicus; assay: Concentration of C22:2 ceramide in liver of D-galactosamine treated rats after 18 hr at dose of 1 g/kg intraperitoneally
[4] = tested on: Rattus norvegicus; assay: Concentration of C22:2 ceramide in liver of D-galactosamine treated rats after 24 hr at dose of 1 g/kg intraperitoneally
[5] = tested on: Rattus norvegicus; assay: Concentration of C24:0 ceramide in liver of D-galactosamine treated rats after 18 hr at dose of 1 g/kg intraperitoneally
[6] = tested on: Rattus norvegicus; assay: Concentration of C24:0 ceramide in liver of D-galactosamine treated rats after 24 hr at dose of 1 g/kg intraperitoneally
[7] = tested on: Rattus norvegicus; assay: Concentration of C24:1 ceramide in liver of D-galactosamine treated rats after 18 hr at dose of 1 g/kg intraperitoneally
[8] = tested on: Rattus norvegicus; assay: Concentration of C24:1 ceramide in liver of D-galactosamine treated rats after 24 hr at dose of 1 g/kg intraperitoneally
[9] = tested on: Rattus norvegicus; assay: Concentration of C24:2 ceramide in liver of D-galactosamine treated rats after 18 hr at dose of 1 g/kg intraperitoneally
[10] = tested on: Rattus norvegicus; assay: Concentration of C24:2 ceramide in liver of D-galactosamine treated rats after 24 hr at dose of 1 g/kg intraperitoneally
[11] = tested on: Rattus norvegicus; assay: Plasma GOT level was observed after 18 hr of D-galactosamine administration at 1 g/kg intraperitoneally
[12] = tested on: Rattus norvegicus; assay: Plasma GOT level was observed after 24 hr of D-galactosamine administration at 1 g/kg intraperitoneally
[13] = tested on: Rattus norvegicus; assay: Plasma GPT level was observed after 18 hr of D-galactosamine administration at 1 g/kg intraperitoneally
[14] = tested on: Rattus norvegicus; assay: Plasma GPT level was observed after 24 hr of D-galactosamine administration at 1 g/kg intraperitoneally
[15] = tested on: Rattus norvegicus; assay: Concentration of C16:0 ceramide in liver of D-galactosamine treated rats after 18 hr at dose of 1 g/kg intraperitoneally
[16] = tested on: Rattus norvegicus; assay: Concentration of C16:0 ceramide in liver of D-galactosamine treated rats after 24 hr at dose of 1 g/kg intraperitoneally
[17] = tested on: Rattus norvegicus; assay: Concentration of C18:0 ceramide in liver of D-galactosamine treated rats after 18 hr at dose of 1 g/kg intraperitoneally
[18] = tested on: Rattus norvegicus; assay: Concentration of C18:0 ceramide in liver of D-galactosamine treated rats after 24 hr at dose of 1 g/kg intraperitoneally
[19] = tested on: Rattus norvegicus; assay: Concentration of C20:0 ceramide in liver of D-galactosamine treated rats after 18 h at dose of 1 g/kg intraperitoneally
[20] = tested on: Rattus norvegicus; assay: Concentration of C20:0 ceramide in liver of D-galactosamine treated rats after 24 hr at dose of 1 g/kg intraperitoneally
[21] = tested on: Rattus norvegicus; assay: Concentration of C22:0 ceramide in liver of D-galactosamine treated rats after 18 hr at dose of 1 g/kg intraperitoneally
[22] = tested on: Rattus norvegicus; assay: Concentration of C22:0 ceramide in liver of D-galactosamine treated rats after 24 hr at dose of 1 g/kg intraperitoneally
[23] = tested on: Rattus norvegicus; assay: Concentration of C16:0 ceramide in plasma of D-galactosamine treated rats after 18 h at dose of 1 g/kg intraperitoneally
[24] = tested on: Rattus norvegicus; assay: Concentration of C16:0 ceramide in plasma of D-galactosamine treated rats after 24 hr at dose of 1 g/kg intraperitoneally
[25] = tested on: Rattus norvegicus; assay: Concentration of C18:0 ceramide in plasma of D-galactosamine treated rats after 18 h at dose of 1 g/kg intraperitoneally
[26] = tested on: Rattus norvegicus; assay: Concentration of C18:0 ceramide in plasma of D-galactosamine treated rats after 24 hr at dose of 1 g/kg intraperitoneally
[27] = tested on: Rattus norvegicus; assay: Concentration of C20:0 ceramide in plasma of D-galactosamine treated rats after 18 hr at dose of 1 g/kg intraperitoneally
[28] = tested on: Rattus norvegicus; assay: Concentration of C20:0 ceramide in plasma of D-galactosamine treated rats after 24 hr at dose of 1 g/kg intraperitoneally
[29] = tested on: Rattus norvegicus; assay: Concentration of C22:1 ceramide in plasma of D-galactosamine treated rats after 18 hr at dose of 1 g/kg intraperitoneally
[30] = tested on: Rattus norvegicus; assay: Concentration of C22:2 ceramide in plasma of D-galactosamine treated rats after 18 hr at dose of 1 g/kg intraperitoneally
[31] = tested on: Rattus norvegicus; assay: Concentration of C22:2 ceramide in plasma of D-galactosamine treated rats after 24 hr at dose of 1 g/kg intraperitoneally
[32] = tested on: Rattus norvegicus; assay: Concentration of C24:0 ceramide in plasma of D-galactosamine treated rats after 18 hr at dose of 1 g/kg intraperitoneally
[33] = tested on: Rattus norvegicus; assay: Concentration of C24:0 ceramide in plasma of D-galactosamine treated rats after 24 hr at dose of 1 g/kg intraperitoneally
[34] = tested on: Rattus norvegicus; assay: Concentration of C24:1 ceramide in plasma of D-galactosamine treated rats after 18 hr at dose of 1 g/kg intraperitoneally
[35] = tested on: Rattus norvegicus; assay: Concentration of C24:1 ceramide in plasma of D-galactosamine treated rats after 24 hr at dose of 1 g/kg intraperitoneally
[36] = tested on: Rattus norvegicus; assay: Concentration of C24:2 ceramide in plasma of D-galactosamine treated rats after 18 hr at dose of 1 g/kg intraperitoneally

For `N[C@H]1C(O)O[C@H](CO)[C@@H](O)[C@@H]1O` (stereo partly specified) [GLUCOSAMINE], the Activity [1] was 4.6 nmol/g tissue, the Activity [2] was 7.1 nmol/g tissue and the Activity [3] was 4.8 nmol/g tissue. The Activity [4] was 7 nmol/g tissue, the Activity [5] was 173.7 nmol/g tissue and the Activity [6] was 166.3 nmol/g tissue. It also gave an Activity [7] of 59.6 nmol/g tissue, an Activity [8] of 67.2 nmol/g tissue and an Activity [9] of 12.4 nmol/g tissue. The Activity [10] was 12.4 nmol/g tissue, the Activity [11] was 2516 Karmen and the Activity [12] was 18480 Karmen. It also gave an Activity [13] of 1208 Karmen, an Activity [14] of 7280 Karmen and an Activity [15] of 43.9 nmol/g tissue. The Activity [16] was 36.2 nmol/g tissue, the Activity [17] was 11.1 nmol/g tissue and the Activity [18] was 11.5 nmol/g tissue. For the same molecule, the Activity [19] was 3.9 nmol/g tissue, the Activity [20] was 5.6 nmol/g tissue and the Activity [21] was 37.8 nmol/g tissue. The Activity [22] was 35.6 nmol/g tissue, the Activity [23] was 1.06 nmol/g tissue and the Activity [24] was 3.13 nmol/g tissue. The Activity [25] was 0.18 nmol/g tissue, the Activity [26] was 0.9 nmol/g tissue and the Activity [27] was 0.42 nmol/g tissue. It also gave an Activity [28] of 0.65 nmol/g tissue, an Activity [29] of 5.45 nmol/g tissue and an Activity [30] of 2.57 nmol/g tissue. The Activity [31] was 2.33 nmol/g tissue, the Activity [32] was 6.31 nmol/g tissue and the Activity [33] was 26.31 nmol/g tissue. The Activity [34] was 5.78 nmol/g tissue, the Activity [35] was 13.83 nmol/g tissue and the Activity [36] was 0.98 nmol/g tissue and 1.94 nmol/g tissue.

From ChEMBL document CHEMBL1137136, “Change in liver and plasma ceramides during D-galactosamine-induced acute hepatic injury by LC-MS/MS” (2004)
